Data: patent US10189803B2, “Synthesis of therapeutic and diagnostic drugs centered on regioselective and stereoselective ring opening of aziridinium ions” (ILLINOIS INSTITUTE OF TECHNOLOGY, priority 2008, dated 2019)
Several values for one entry are separate records, joined by “and”; a condition that tells them apart may be missing. Equal entries are not always repeated.

Legend:
[1] = In vivo biodistribution of radiolabeled complexes in normal athymic mice; details: for percent injected dose per gram, Blood / percent injected dose per gram, Femur / percent injected dose per gram, Heart / percent injected dose per gram, Kidney / percent injected dose per gram, Liver / percent injected dose per gram, Lung / percent injected dose per gram, Spleen: non-tumor bearing mice, ± SD
Procedure: The in vivo stability of the radiolabeled complexes was evaluated by performing biodistribution studies in normal athymic mice. Selected organs and the blood were harvested at five time points, 0.5, 1, 4, 8, and 24 h post-injection and the radioactivity measured. […] C-NE3TA radiolabeled with ^153Gd was almost completely cleared from blood, liver, spleen, lung, heart, and femur in less than 4 hours, and radioactivity level in the kidney was 0.16%±0.11 ID/g at 24 hour post-injection (Table 9).
In vivo biodistribution studies oh the radiolabeled metal complexes. Female athymic mice were obtained from Charles River Laboratories (Wilmington, Mass.) at 4-6 weeks of age. The pH of the radiolabeled ligands was adjusted to pH ˜7.0 with 0.5 M sodium bicarbonate (pH 10.5) and diluted in phosphate-buffered saline. The radiolabeled ligands ([…] for ^86Y, ^205/6Bi, ^177Lu, and ^203Pb) were administered to the mice in 200 μL of solution via tail vein injection. The mice (5 per data point) were sacrificed by exsanguination at 0.5, 1, 4, 8, and 24 h. Blood and the major organs were harvested, wet-weighed and the radioactivity measured in a γ-scintillation counter (1480 Wizard, Perkin Elmer). The percent injected dose per gram (% ID/g) was determined for each tissue. The values presented are the mean and standard deviation for each tissue.

[2] = In vitro serum stability of radiolabeled C-NE3TA complexes in human serum (SE-HPLC); format: in vitro ADME; details: 37° C., up to 11 days
Procedure: C-NE3TA was radiolabeled with ^90Y, ^177Lu, ^203Pb, ^205/6Bi, or ^153Gd as previously described (Chong, H. S.; Milenic, D. E.; Garmestani, K.; Brady, E. D.; Arora, H.; Pfiester, C.; Brechbiel, M. W., Nucl. Med. Biol. 2006, 33, 459-67; Chong H S, Garmestani K, Bryant Jr., L H Milenic D E, Overstreet T, Birch N, Le N, Brady E D, Brechbiel M W. J. Med. Chem. 2006, 49, 2055-2062). In vitro serum stability of the radiolabeled complexes purified via ion-exchange chromatography was performed to determine if C-NE3TA labeled with the radioisotopes remained stable without transchelation or loss of their respective radionuclide in human serum. This was assessed by measuring the transfer of radionuclide from the complex to serum proteins over the course of 11 days.
In vitro stability of the radiolabeled metal complexes. The stability of the purified radiolabeled complexes was evaluated in human serum (Gemini Bioproducts, Woodland, Calif.) for up to 11 days. The serum stability of the radiolabeled complexes was assessed by measuring the transfer of the radionuclide from each complex to serum proteins using SE-HPLC methods. Radiolabeled complexes were diluted to an appropriate volume that allowed for preparation of multiple samples containing 5-10 μCi and were filter-sterilized using a Millex-GV 0.22 μm filter. This stock solution was then mixed with 1400 μL of sterile normal human serum. Aliquots (200 μL) were drawn and separated into individual tubes for subsequent analysis using aseptic technique. The samples were incubated at 37° C., and at designated intervals, subjected to analysis by SE-HPLC. Samples were loaded onto the HPLC and eluted with PBS, pH 7.4 isocratically at 1 mL/min. […] Radioactivity associated with a transfer to serum proteins generally appeared at ˜6 min.

O=C([O-])CNC(Cc1ccc([N+](=O)[O-])cc1)CN1CCN(CC(=O)[O-])CCN(CC(=O)[O-])CC1.[Bi+3] (stereo not drawn) [^205/6Bi-C-NE3TA]
percent injected dose per gram, Blood ([1]; 0.50 hr): 0.46 ± 0.18 % ID/g
percent injected dose per gram, Femur ([1]; 0.50 hr): 0.62 ± 0.27 % ID/g
percent injected dose per gram, Heart ([1]; 0.50 hr): 0.36 ± 0.09 % ID/g
percent injected dose per gram, Kidney ([1]; 0.50 hr): 5.05±0.24 % ID/g
percent injected dose per gram, Liver ([1]; 0.50 hr): 1.01 ± 0.15 % ID/g
percent injected dose per gram, Lung ([1]; 0.50 hr): 0.56 ± 0.13 % ID/g
percent injected dose per gram, Spleen ([1]; 0.50 hr): 0.45 ± 0.24 % ID/g
percent injected dose per gram, Kidney ([1]; 0.50 hr, listed as 205/6BiC-NE3TA): 5.05 ± 0.24 % ID/g
percent injected dose per gram, Blood ([1]; 1.00 hr): 0.13 ± 0.02 % ID/g
percent injected dose per gram, Femur ([1]; 1.00 hr): 0.26 ± 0.05 % ID/g
percent injected dose per gram, Heart ([1]; 1.00 hr): 0.19 ± 0.02 % ID/g
percent injected dose per gram, Kidney ([1]; 1.00 hr): 4.69 ± 0.55 % ID/g
percent injected dose per gram, Liver ([1]; 1.00 hr): 0.80 ± 0.16 % ID/g
percent injected dose per gram, Lung ([1]; 1.00 hr): 0.25 ± 0.03 % ID/g
percent injected dose per gram, Spleen ([1]; 1.00 hr): 0.25 ± 0.02 % ID/g
percent injected dose per gram, Blood ([1]; 4.00 hr): 0.03 ± 0.00 % ID/g
percent injected dose per gram, Femur ([1]; 4.00 hr): 0.23 ± 0.06 % ID/g
percent injected dose per gram, Heart ([1]; 4.00 hr): 0.12 ± 0.01 % ID/g
percent injected dose per gram, Kidney ([1]; 4.00 hr): 3.42 ± 0.55 % ID/g
percent injected dose per gram, Liver ([1]; 4.00 hr): 0.52 ± 0.13 % ID/g
percent injected dose per gram, Lung ([1]; 4.00 hr): 0.16 ± 0.01 % ID/g
percent injected dose per gram, Spleen ([1]; 4.00 hr): 0.18 ± 0.01 % ID/g
percent injected dose per gram, Blood ([1]; 8.00 hr): 0.02 ± 0.01 % ID/g
percent injected dose per gram, Femur ([1]; 8.00 hr): 0.14 ± 0.02 % ID/g
percent injected dose per gram, Heart ([1]; 8.00 hr): 0.09 ± 0.01 % ID/g
percent injected dose per gram, Kidney ([1]; 8.00 hr): 1.99 ± 0.32 % ID/g
percent injected dose per gram, Liver ([1]; 8.00 hr): 0.37 ± 0.08 % ID/g
percent injected dose per gram, Lung ([1]; 8.00 hr): 0.13 ± 0.04 % ID/g
percent injected dose per gram, Spleen ([1]; 8.00 hr): 0.12 ± 0.02 % ID/g
percent injected dose per gram, Blood ([1]; 24.00 hr): 0.01 ± 0.00 % ID/g
percent injected dose per gram, Femur ([1]; 24.00 hr): 0.13 ± 0.01 % ID/g
percent injected dose per gram, Heart ([1]; 24.00 hr): 0.08 ± 0.02 % ID/g
percent injected dose per gram, Kidney ([1]; 24.00 hr): 0.73±0.19 % ID/g
percent injected dose per gram, Liver ([1]; 24.00 hr): 0.14 ± 0.03 % ID/g
percent injected dose per gram, Lung ([1]; 24.00 hr): 0.09 ± 0.01 % ID/g
percent injected dose per gram, Spleen ([1]; 24.00 hr): 0.13 ± 0.01 % ID/g
percent injected dose per gram, Kidney ([1]; 24.00 hr, listed as 205/6BiC-NE3TA): 0.73 ± 0.19 % ID/g
blood and organ clearance (in words) ([1]; normal athymic mice): rapidly cleared from the blood, lung, heart, and femur
stability in human serum (in words) [2]: no measurable loss of radioactivity

O=C(O)CNC(Cc1ccc([N+](=O)[O-])cc1)CN1CCN(CC(=O)O)CCN(CC(=O)O)CC1.[177Lu] (stereo not drawn) [^177Lu-C-NE3TA]
percent injected dose per gram, Blood ([1]; 0.50 hr): 0.93 ± 0.30 % ID/g
percent injected dose per gram, Femur ([1]; 0.50 hr): 1.06 ± 1.35 % ID/g
percent injected dose per gram, Heart ([1]; 0.50 hr): 0.37 ± 0.08 % ID/g
percent injected dose per gram, Kidney ([1]; 0.50 hr): 2.78 ± 0.99 % ID/g
percent injected dose per gram, Liver ([1]; 0.50 hr): 0.82 ± 0.27 % ID/g
percent injected dose per gram, Lung ([1]; 0.50 hr): 0.87 ± 0.22 % ID/g
percent injected dose per gram, Spleen ([1]; 0.50 hr): 0.33 ± 0.08 % ID/g
percent injected dose per gram, Blood ([1]; 1.00 hr): 0.31 ± 0.04 % ID/g
percent injected dose per gram, Femur ([1]; 1.00 hr): 0.39 ± 0.13 % ID/g
percent injected dose per gram, Heart ([1]; 1.00 hr): 0.19 ± 0.09 % ID/g
percent injected dose per gram, Kidney ([1]; 1.00 hr): 1.57 ± 0.52 % ID/g
percent injected dose per gram, Liver ([1]; 1.00 hr): 0.69 ± 0.20 % ID/g
percent injected dose per gram, Lung ([1]; 1.00 hr): 0.42 ± 0.16 % ID/g
percent injected dose per gram, Spleen ([1]; 1.00 hr): 0.28 ± 0.20 % ID/g
percent injected dose per gram, Blood ([1]; 4.00 hr): 0.12 ± 0.02 % ID/g
percent injected dose per gram, Femur ([1]; 4.00 hr): 0.36 ± 0.11 % ID/g
percent injected dose per gram, Heart ([1]; 4.00 hr): 0.08 ± 0.02 % ID/g
percent injected dose per gram, Kidney ([1]; 4.00 hr): 1.34 ± 0.09 % ID/g
percent injected dose per gram, Liver ([1]; 4.00 hr): 0.50 ± 0.02 % ID/g
percent injected dose per gram, Lung ([1]; 4.00 hr): 0.17 ± 0.03 % ID/g
percent injected dose per gram, Spleen ([1]; 4.00 hr): 0.19 ± 0.07 % ID/g
percent injected dose per gram, Blood ([1]; 8.00 hr): 0.06 ± 0.01 % ID/g
percent injected dose per gram, Femur ([1]; 8.00 hr): 0.28 ± 0.15 % ID/g
percent injected dose per gram, Heart ([1]; 8.00 hr): 0.10 ± 0.11 % ID/g
percent injected dose per gram, Kidney ([1]; 8.00 hr): 1.16 ± 0.19 % ID/g
percent injected dose per gram, Liver ([1]; 8.00 hr): 0.36 ± 0.05 % ID/g
percent injected dose per gram, Lung ([1]; 8.00 hr): 0.15 ± 0.03 % ID/g
percent injected dose per gram, Spleen ([1]; 8.00 hr): 0.13 ± 0.02 % ID/g
percent injected dose per gram, Blood ([1]; 24.00 hr): 0.01 ± 0.00 % ID/g
percent injected dose per gram, Femur ([1]; 24.00 hr): 0.38 ± 0.10 % ID/g
percent injected dose per gram, Heart ([1]; 24.00 hr): 0.02 ± 0.01 % ID/g
percent injected dose per gram, Kidney ([1]; 24.00 hr): 0.84 ± 0.08 % ID/g
percent injected dose per gram, Liver ([1]; 24.00 hr): 0.31 ± 0.04 % ID/g
percent injected dose per gram, Lung ([1]; 24.00 hr): 0.07 ± 0.03 % ID/g
percent injected dose per gram, Spleen ([1]; 24.00 hr): 0.12 ± 0.05 % ID/g
stability in human serum (in words) [2]: no measurable loss of radioactivity

O=C(O)CNC(Cc1ccc([N+](=O)[O-])cc1)CN1CCN(CC(=O)O)CCN(CC(=O)O)CC1.[153Gd] (stereo not drawn) [^153Gd-C-NE3TA]
percent injected dose per gram, Blood ([1]; 0.50 hr): 1.41 ± 0.57 % ID/g
percent injected dose per gram, Femur ([1]; 0.50 hr): 0.43 ± 0.14 % ID/g
percent injected dose per gram, Heart ([1]; 0.50 hr): 0.43 ± 0.16 % ID/g
percent injected dose per gram, Kidney ([1]; 0.50 hr): 4.28 ± 1.33 % ID/g
percent injected dose per gram, Liver ([1]; 0.50 hr): 1.74 ± 0.69 % ID/g
percent injected dose per gram, Lung ([1]; 0.50 hr): 0.91 ± 0.28 % ID/g
percent injected dose per gram, Spleen ([1]; 0.50 hr): 0.50 ± 0.37 % ID/g
percent injected dose per gram, Blood ([1]; 1.00 hr): 0.20 ± 0.08 % ID/g
percent injected dose per gram, Femur ([1]; 1.00 hr): 1.30 ± 0.58 % ID/g
percent injected dose per gram, Heart ([1]; 1.00 hr): 0.14 ± 0.06 % ID/g
percent injected dose per gram, Kidney ([1]; 1.00 hr): 1.13 ± 0.12 % ID/g
percent injected dose per gram, Liver ([1]; 1.00 hr): 0.58 ± 0.22 % ID/g
percent injected dose per gram, Lung ([1]; 1.00 hr): 0.32 ± 0.09 % ID/g
percent injected dose per gram, Spleen ([1]; 1.00 hr): 0.24 ± 0.05 % ID/g
percent injected dose per gram, Blood ([1]; 4.00 hr): 0.00 ± 0.00 % ID/g
percent injected dose per gram, Femur ([1]; 4.00 hr): 0.02 ± 0.01 % ID/g
percent injected dose per gram, Heart ([1]; 4.00 hr): 0.01 ± 0.00 % ID/g
percent injected dose per gram, Kidney ([1]; 4.00 hr): 0.52 ± 0.04 % ID/g
percent injected dose per gram, Liver ([1]; 4.00 hr): 0.03 ± 0.01 % ID/g
percent injected dose per gram, Lung ([1]; 4.00 hr): 0.03 ± 0.00 % ID/g
percent injected dose per gram, Spleen ([1]; 4.00 hr): 0.02 ± 0.00 % ID/g
percent injected dose per gram, Blood ([1]; 8.00 hr): 0.00 ± 0.00 % ID/g
percent injected dose per gram, Femur ([1]; 8.00 hr): 0.02 ± 0.00 % ID/g
percent injected dose per gram, Heart ([1]; 8.00 hr): 0.01 ± 0.00 % ID/g
percent injected dose per gram, Kidney ([1]; 8.00 hr): 0.38 ± 0.06 % ID/g
percent injected dose per gram, Liver ([1]; 8.00 hr): 0.02 ± 0.00 % ID/g
percent injected dose per gram, Lung ([1]; 8.00 hr): 0.02 ± 0.00 % ID/g
percent injected dose per gram, Spleen ([1]; 8.00 hr): 0.02 ± 0.00 % ID/g
percent injected dose per gram, Blood ([1]; 24.00 hr): 0.00 ± 0.00 % ID/g
percent injected dose per gram, Femur ([1]; 24.00 hr): 0.01 ± 0.00 % ID/g
percent injected dose per gram, Heart ([1]; 24.00 hr): 0.13 ± 0.27 % ID/g
percent injected dose per gram, Kidney ([1]; 24.00 hr): 0.16 % ID/g and 0.16 ± 0.11 % ID/g
percent injected dose per gram, Liver ([1]; 24.00 hr): 0.02 ± 0.01 % ID/g
percent injected dose per gram, Lung ([1]; 24.00 hr): 0.01 ± 0.01 % ID/g
percent injected dose per gram, Spleen ([1]; 24.00 hr): 0.01 ± 0.01 % ID/g
stability in human serum (in words) [2]: no measurable loss of radioactivity
